Test results as given in patent US5391800A, “Method for inhibition of cell motility by sphingosine-1-phosphate, its derivatives and mimetics and method of synthesizing sphingosine-1-phosphate and its derivatives” (The Biomembrane Institute, priority 1993, dated 1995).
Entries after “also recorded” stand apart in the source; their conditions may differ.

How the values were obtained:
[1] = tested on: B16/F1 melanoma cells; test: Growth of B16/F1 melanoma cells (cell count after 48 hr); type: cell-based, mouse; conditions: for Growth-inhibitory effect / activity at 10 µM: 10 μM; for Growth-inhibitory effect: B16/F1 cells
Procedure: *Mean ± S.E. (n = 3). For controls (defined as 100%), cell number was
10^5 cells were seeded and
cultured on a 35 mm plastic dish in Dulbecco's modified Eagle's medium
containing 2% fetal bovine serum in the presence or absence of SPN
derivatives. 48 hr later, cells were counted.

[2] = tested on: PKC of B16/F1 melanoma cells; test: PKC activity of B16/F1 melanoma cells (32P incorporation into histone IIIS); type: biochemical, mouse; conditions: for Inhibitory effect on PKC activity: B16/F1 cells; for % PKC activity: control = 100%, mean ± S.E., n = 3; for PKC inhibition: concentration not given
Procedure: Effects of SPN derivatives on protein kinase C activity and cell growth of B16/F1 cells was also investigated. […] Toxicity of these compounds to B16/F1 cells and human neutrophils was also examined using a trypan blue exclusion assay after 1 hour incubation with the compounds.
*Mean ± S.E. (n = 3). For controls (defined as 100%), PKC activity was
33225 cpm per tube per 20 min, as measured by ^32 P incorporation int

[3] = tested on: B16/F1 melanoma cells; test: Chemoinvasion of B16/F1 cells through thick MATRI-GEL layer on transwell filter; type: cell-based, mouse; conditions: for Effect on invasion compared with SPN-1-P: FIG. 10; for % invasion: percent relative to control, mean ± S.E., n = 3 or 4, concentration not given, 4200 min
Procedure: (§1) The assays for determining chemotactic cell motility and chemoinvasion can be performed using transwell plates with a polycarbonate membrane filter (pore size 8 μm) (Costar Scientific, Cambridge, Mass.). Aliguots, e.g., 50 μl, of an aqueous solution of MATRI-GEL (Collaborative Research, Bedford, Mass.) containing SPN-1-P or other inhibitor (e.g., 20 μg/ml for chemotactic motility assay or 200 μg/ml for chemoinvasion assay), is added to each well and dried overnight. The filter is then fitted onto the lower chamber plate. The lower chamber can contain conditioned medium (CM) (i.e., medium used for splenic stromal cell culture, and containing motility factor secreted by these cells), e.g., 0.6 ml, with or without SPN-1-P or other inhibitor. To the upper chamber is added, e.g., about 100 μl, of cell suspension (5×10^4 cells/ml for invasion assay, 5×10^5 cells/ml for motility assay), which is then incubated in 5% CO2 at 37° C. for 70-72 hours (invasion assay) or 20 hours (motility assay). After incubation, cells remaining in the upper chamber are wiped off with a cotton swab, and cells which had migrated to the lower chamber side of the filter are fixed in methanol for 30 seconds and stained with 0.05% toluidine blue. The filter is removed, the stain is solubilized in 10% acetic acid (e.g., 0.1 ml for invasion assay, 0.5 ml for motility assay), and color intensity (optical density) is quantitated by ELISA reading at 630 nm. Using SPN-1-P, a linear relationship was observed between cell number and toluidine blue optical density (FIG. 7).
(§2) Assays were performed using transwell plates with polycarbonate membrane filters (pore size 8 μm) (Costar Scientific, Cambridge, Mass.). 50 μl aliguots of an aqueous solution of MATRI-GEL (Collaborative Research, Bedford, Mass.) containing 20 μg/ml (for chemotactic motility assay) or 200 μg/ml (for chemoinvasion assay) were added to each well and dried overnight. The filter was fitted onto the lower chamber plate. The lower chamber contained 0.6 ml conditioned medium (CM) (i.e., medium used for splenic stromal cell culture, and containing motility factor secreted by these cells) with or without the suspected inhibitor. To the upper chamber was added 100 μl of cell suspension (5×10^4 cells/ml for invasion assay, 5×10^5 cells/ml for motility assay), which was then incubated in 5% CO2 at 37° C. for 70-72 hours (invasion assay) or 20 hours (motility assay). After incubation, cells remaining in the upper chamber were wiped off with a cotton swab, and cells which had migrated to the lower chamber side of the filter were fixed in methanol for 30 seconds and stained with 0.05% toluidine blue. The filter was removed, the stain was solubilized in 10% acetic acid (0.1 ml for invasion assay, 0.5 ml for motility assay), and color intensity (optical density) was quantitated by ELISA reading at 630 nm. A linear relationship was observed between cell number and toluidine blue optical density (FIG. 7.).
Chemoinvasion was measured by the ability of tumor cells in CM (as described above) to migrate through a thick layer of MATRI-GEL during a prolonged incubation period (70 hours). This property is distinct from chemotactic cell motility, which involves a much shorter incubation period (20 hours) and a thin layer of MATRI-GEL. For the chemoinvasion assay, 10 μg of MATRI-GEL was applied to a polycarbonate transwell filter and migration was observed following 70 hours incubation (based on results shown in FIG. 8).

[4] = tested on: B16/F10 melanoma cells; test: Phagokinetic activity of B16/F10 melanoma cells on gold sol-coated plates; type: cell-based, mouse; conditions: for Cleared area: mean ± S.D., n > 50; for Area cleared by B16/F10 tumor cells: SPN-1-P at 1.0 or 0.1 μM
Procedure: Phagokinetic activity is measured by the ability of cells to ingest foreign particles while moving. […] A uniform coating of gold particles is prepared on glass coverslips precoated with bovine serum albumin, and coverslips are rinsed repeatedly to remove non-adhering or loosely-adhering gold particles. Freshly-prepared neutrophils or tumor cells detached from culture are placed in a Petri dish containing the gold sol-coated plate, and incubated for about 2 hours (for human neutrophils) or about 18 hours (for tumor cells). The coverslips are fixed for 1 hour in a 4% formaldehyde solution in phosphate-buffered saline (PBS) and mounted on microscope slides. The phagokinetic tracks are observed on a television connected to a light microscope (Nikon, Tokyo, Japan). Tracks on the television are transferred to translucent sheets, which are then photocopied. Phagokinetic activity is quantitated by cutting and weighing the swept area in the copy.
A uniform coating of gold particles was prepared on glass coverslips precoated with bovine serum albumin, and the coverslips were rinsed repeatedly to remove non-adhering or loosely-adhering gold particles. Freshly-prepared neutrophils or tumor cells detached from culture were placed in a Petri dish containing the gold sol-coated plate, and incubated for 2 hours (for human neutrophils) or 18 hours (for tumor cells). The coverslips were fixed for 1 hour in 4% formaldehyde solution in phosphate-buffered saline (PBS) and mounted on microscope slides. The phagokinetic tracks were observed on a television connected to a light microscope (Nikon, Tokyo, Japan). Tracks on the television were transferred to translucent sheets, which were then photocopied. Phagokinetic activity was quantitated by cutting and weighing the swept area in the copy.

[5] = tested on: B16/F1 melanoma cells; test: Chemotactic motility of B16/F1 cells through MATRI-GEL-coated transwell filter; type: cell-based, mouse; conditions: for % motility: percent relative to control, n = 3 or 4, concentration not given
Procedure: as §1, §2
In experiments with different quantities of MATRI-GEL, cell migration through transwell filter was maximal with 1 μg/well was applied, and when CM was used (FIG. 8). Therefore, chemotactic cell motility, as affected by various SPN derivatives, was assayed under these conditions.
*Mean ± S.E. of percent relative to control (n = 4). Actual O.D. value
and 0.147 (HT1080). 6 × 10^4 cells were placed on a transwell
filter coated with 1.0 μg MATRIGEL in the upper chamber, and cultured
for 18 hours in the presence of CM and SPN1-P in the lower chamber.

[6] = Mus musculus, B16-F1, 48 hr, control = 100%, mean ± S.E., n = 3
[7] = Mus musculus, B16-F10, 1.0 μM, 18 hours, read-out: % of control (CM+) value
[8] = comparison with other sphingolipids

CCCCCCCCCCCCC/C=C/[C@@H](O)[C@@H](N)CO [SPN, sphingosine]
Growth-inhibitory effect [1]: moderate growth-inhibitory effect | activity at 1 µM [1, 6]: 101 ± 1% | activity at 5 µM [1, 6]: 87 ± 10% | activity at 10 µM [1, 6]: 78 ± 4% | Inhibitory effect on PKC activity ([2]; 75 μM): strong inhibitory effect | % PKC activity ([2]; 75 μM): 34 ± 7% | Effect on invasion compared with SPN-1-P ([3]; 70 hours): weaker effect | % invasion [3]: 16 ± 7% | Cleared area less control (CM-) value ([4]; 1.0 μM, 18 hours): 0.4 × 10^3 μm^2 | Cleared area ([4]; 1.0 μM, 18 hours): 2.5 ± 1.0 × 10^3 μm^2 | activity at 1 µM [4, 7]: 8% | Area cleared by B16/F10 tumor cells [4]: reduced the area cleared by tumor cells | inhibition at 10 µM ([5]; Mus musculus, B16-F1, 20 h, read-out: Motility blocked): 100%

CCCCCCCCCCCCC/C=C/[C@@H](O)[C@@H](N)COP(=O)(O)O [SPN-1-P, sphingosine-1-phosphate]
Growth-inhibitory effect [1]: no growth-inhibitory effect | activity at 0.01 µM ([1]; Mus musculus, B16-F1, 0.01 μM, 48 hr, control = 100%, mean ± S.E., n = 3): 103 ± 10% | activity at 0.1 µM ([1]; Mus musculus, B16-F1, 0.1 μM, 48 hr, control = 100%, mean ± S.E., n = 3): 97 ± 5% | activity at 1 µM [1, 6]: 105 ± 10% | activity at 5 µM [1, 6]: 96 ± 2% | activity at 10 µM [1, 6]: 87 ± 10% | % PKC activity ([2]; 10 μM): 121 ± 10% | Inhibitory effect on PKC activity ([2]; 75 μM): no inhibitory effect | % PKC activity ([2]; 75 μM): 108 ± 32% | PKC inhibition [2]: does not inhibit PKC | Inhibition of invasion ([3]; 10^-8 or 10^-7 M, 70 hours): strongly inhibited | Inhibition of chemoinvasion compared with other sphingolipids [3, 8]: unexpectedly superior inhibition | Cleared area less control (CM-) value ([4]; 0.0001 μM, 18 hours): 3.9 × 10^3 μm^2 | Cleared area ([4]; 0.0001 μM, 18 hours): 6.0 ± 2.7 × 10^3 μm^2 | Cleared area less control (CM-) value ([4]; 0.01 μM, 18 hours): 2.0 × 10^3 μm^2 | Cleared area ([4]; 0.01 μM, 18 hours): 4.1 ± 1.4 × 10^3 μm^2 | Cleared area less control (CM-) value ([4]; 0.1 μM, 18 hours): 1.3 × 10^3 μm^2 | Cleared area ([4]; 0.1 μM, 18 hours): 3.4 ± 1.3 × 10^3 μm^2 | Cleared area less control (CM-) value ([4]; 1.0 μM, 18 hours): 0.3 × 10^3 μm^2 | Cleared area ([4]; 1.0 μM, 18 hours): 2.4 ± 1.1 × 10^3 μm^2 | activity at 0.0001 µM ([4]; Mus musculus, B16-F10, 0.0001 μM, 18 hours, read-out: % of control (CM+) value): 81% | activity at 0.01 µM ([4]; Mus musculus, B16-F10, 0.01 μM, 18 hours, read-out: % of control (CM+) value): 42% | activity at 0.1 µM ([4]; Mus musculus, B16-F10, 0.1 μM, 18 hours, read-out: % of control (CM+) value): 27% | activity at 1 µM [4, 7]: 6% | Area cleared by B16/F10 tumor cells [4]: greatly reduced | Inhibition of B16/F1 motility, comparison ([5]; FIG. 9, 20 hour): inhibited most strongly; also recorded: same dose-dependent inhibitory effect on cell motility | inhibition at 0.1 µM ([5]; Mus musculus, B16-F1, 10^-7 M, 20 hour, CM, lower chamber, read-out: Motility blocked): 100% | inhibition at 0.01 µM ([5]; Mus musculus, B16-F1, 10^-8 M, 20 hour, CM, lower chamber, read-out: Motility blocked): 90% | activity at 0.001 µM ([5]; Mus musculus, B16-F1, F1, 0.001 μM, 18 hours, relative to control, mean ± S.E., n = 4): 82 ± 44% | activity at 0.01 µM ([5]; Mus musculus, B16-F1, F1, 0.01 μM, 18 hours, relative to control, mean ± S.E., n = 4): 12 ± 7% | activity at 0.1 µM ([5]; Mus musculus, B16-F1, F1, 0.1 μM, 18 hours, relative to control, mean ± S.E., n = 4): 6 ± 2% | activity at 1 µM ([5]; Mus musculus, B16-F1, F1, 1.0 μM, 18 hours, relative to control, mean ± S.E., n = 4): 8 ± 2% | Susceptibility of B16/F1 cells (chemotactic motility) ([5]; Table V, in words): high | Inhibition of cell motility compared with other sphingolipids [5, 8]: much stronger than that for SPN, N,N-dimethylsphingosine (DMS), or N,N,N-trimethylsphingosine (TMS); also recorded: unexpectedly superior inhibition | % motility ([5]; mean ± S.E.): 5 ± 1%

CCCCCCCCCCCCC/C=C/[C@@H](O)[C@H](CO)[N+](C)(C)C [TMS, N,N,N-trimethylsphingosine]
Growth-inhibitory effect [1]: strong | activity at 1 µM [1, 6]: 88 ± 7% | activity at 5 µM [1, 6]: 77 ± 8% | activity at 10 µM [1, 6]: 11 ± 1% | Inhibitory effect on PKC activity ([2]; 75 μM): strong inhibitory effect | % PKC activity ([2]; 75 μM): 16 ± 3% | PKC inhibition [2]: in striking contrast to DMS and TMS, SPN-1-P does not inhibit PKC | Effect on invasion compared with SPN-1-P ([3]; 70 hours): weaker effect | % invasion [3]: 75 ± 8% | Cleared area less control (CM-) value ([4]; 1.0 μM, 18 hours): 3.5 × 10^3 μm^2 | Cleared area ([4]; 1.0 μM, 18 hours): 5.6 ± 2.7 × 10^3 μm^2 | activity at 1 µM [4, 7]: 73% | Area cleared by B16/F10 tumor cells [4]: reduced the area cleared by tumor cells | Inhibition of motility ([5]; 10^-5 M, 20 hour): only weak inhibition of motility | % motility ([5]; mean ± S.E.): 100 ± 19%
